# Results reported in US9271492B2, “Antimicrobial composition” (Rohm and Haas Company, priority 2011, dated 2016).
# What was measured:
# Format in all cases: cell-based
# [1] = system: Escherichia coli (E. coli - ATCC #10536); assay: Example 2: high resolution MBC synergy assay in phosphate buffer containing 5% dipropylene glycol; details: for ΣFBC: calculated from Ca/MBCA + Cb/MBCB; for MBC of component alone (MBCA, MBCB) / Cb, end-point (MBC) of second component carveol in the mixture / Cb, end-point (MBC) of second component perillyl alcohol in the mixture / Ca, end-point (MBC) of first component thymol in the mixture: complete kill in 15 seconds; for MBC of component alone (MBCA, MBCB): phosphate buffer with 5% DPG, about 1×10^8 bacteria per mL; for Cb, end-point (MBC) of second component carveol in the mixture / Cb, end-point (MBC) of second component perillyl alcohol in the mixture: mixture with thymol at Ca
# Description: In this Example, a wide range of combinations of chemicals was tested by conducting high resolution MBC assays of carveol or perillyl alcohol in the presence of various concentrations of thymol. […] The MBC plate was inoculated one column at a time with the test microorganism. An aliquot of the inoculated well was transferred at 15 seconds to a plate containing a neutralizing agent (D/E Neutralizing Broth), mixed and held for 5 minutes before being transferred to a growth plate containing trypticase soy broth (TSB). The TSB plate was incubated at 37° C. and read for the presence/absence of growth at 24 hours. […] This microorganism is representative of natural contaminants in many consumer and industrial applications. […] The tables show the specific combinations of two components; results against the microorganism tested; the end-point activity in weight % measured by the MBC for the first component alone (thymol, MBCA), for the second component alone ([…] alcohol, MBCB), for the first component in the mixture (Ca) and for the second component in the mixture (Cb); the calculated ΣFBC value; and the range of synergistic ratios for each combination tested (first component to second component or A/B) against the particular microorganism.
# [2] = system: Escherichia coli (10536 strain); assay: Example 1: 15 second contact suspension kill assay, mean bacterial survival and MBC; details: component alone; lowest concentration giving complete kill after 15 seconds; upper boundary to the MBC
# [3] = system: Escherichia coli (E. coli ATCC #10536); assay: Example 3: automated assessment of efficacy in surfactant base (2.85% sodium cocoyl glycinate + 1.85% sodium lauroamphoacetate, pH 10); details: for bactericidal efficacy in combination with thymol (in words): in combination with thymol at concentrations lower than their MBC in the same surfactant formulation, complete kill in all 4 or 3 replicates; for MBC (minimum biocidal concentration): component alone in 2.85% sodium cocoyl glycinate + 1.85% sodium lauroamphoacetate solution at pH 10
# Description: In these examples, the efficacy of combinations of thymol and menthadiene alcohols were tested in a surfactant cleansing formulation comprising 2.85% sodium cocoyl glycinate and 1.85% sodium lauroamphoacetate. This corresponds to a 50% in use dilution with water of a typical neat formulation containing 5.7% cocoyl glycinate and 3.7% % sodium lauroamphoacetate during hand washing. Solutions were prepared such that the concentrations of the surfactant components and test actives were 1.1 times the final desired concentration in order to allow for dilution with the bacterial inoculum in the test. The solutions were manually adjusted to pH 10.0 by dropwise addition of sodium hydroxide solution, as measured with a pH meter at ambient temperature. Solutions of the thymol and/or menthadiene alcohols were prepared at a maximum of 24 hours before testing. The same thymol and menthadiene alcohols were used as in Example 1.
# The efficacy of the combinations of the present invention was determined against the same bacterium as in Example 1, Escherichia coli (E. coli ATCC #10536), at a concentration of approximately 1×10^8 bacteria per mL.
# Tests were conducted using standard microtiter plate assays using an automated liquid handling system. 270 μl of the surfactant test solution was pipetted into each well of the microtitre plate (Nunc F Gamma Irradiated 96F untreated microtitre plates of clear polystyrene) and 30 μl of the bacterial suspension was then added. After exactly 15 seconds of bacterial exposure, a 30 μl volume of bacterial cells was withdrawn and transferred to 270 μl of D/E quench solution. After 5 minutes in the D/E quench, the optical density (OD) was measured for each plate in turn at two specific wavelengths (450 nm and 590 nm). These provide a dual check of antimicrobial activity, as the OD450 reading is specific for the yellow colour of D/E quench when bacterial growth is observed, whereas OD590 is specific for the initial purple colour of the D/E quench which is retained if no bacterial growth is observed. […] Delta OD values were calculated by subtracting […] at time=16 hours. […] To identify antibacterially efficacious systems (those preventing appreciable bacterial growth after incubation), the following threshold changes in OD readings have been adopted: if (1). OD450 increases by less than 0.2 absorbance unit (AU) on incubation and (2). […] The number of replicate wells showing either bacterial growth or no growth is also readily assessed by eye by following the colour change. […]
# In each case, binary mixtures were assessed in the weight to weight ratio of thymol to menthadiene alcohol of 1:2.5.
compound,measurement,setting,value
"C=C(C)C1CC=C(C)C(O)C1 (stereo not shown) [carveol, 2-methyl-5-(prop-1-en-2-yl)cyclohex-2-enol]",ΣFBC,[1],1.00
same,"MBC of component alone (MBCA, MBCB)",[1],0.7 weight %
same,"Cb, end-point (MBC) of second component carveol in the mixture",[1]; thymol to carveol ratio 1 to 0.05,0.025 weight %
same,"Cb, end-point (MBC) of second component carveol in the mixture",[1]; thymol to carveol ratio 1 to 0.08,0.05 weight %
same,"Cb, end-point (MBC) of second component carveol in the mixture",[1]; thymol to carveol ratio 1 to 0.25,0.075 weight %
same,"Cb, end-point (MBC) of second component carveol in the mixture",[1]; thymol to carveol ratio 1 to 0.5,0.1 weight %
same,"Cb, end-point (MBC) of second component carveol in the mixture",[1]; thymol to carveol ratio 1 to 4.38,0.35 weight %
same,MBC (minimum biocidal concentration),[2],0.3 % w/v
same,bactericidal efficacy in combination with thymol (in words),[3],15 second bactericidal efficacy
"C=C(C)[C@@H]1CC=C(CO)CC1 [perillyl alcohol, (S)-(4-(prop-1-en-2-yl)cyclohex-1-en-1-yl)methanol]",ΣFBC,[1],1.00
same,"MBC of component alone (MBCA, MBCB)",[1],0.3 weight %
same,"Cb, end-point (MBC) of second component perillyl alcohol in the mixture",[1]; thymol to perillyl alcohol ratio 1 to 0.13,0.025 weight %
same,"Cb, end-point (MBC) of second component perillyl alcohol in the mixture",[1]; thymol to perillyl alcohol ratio 1 to 0.17,0.05 weight %
same,"Cb, end-point (MBC) of second component perillyl alcohol in the mixture",[1]; thymol to perillyl alcohol ratio 1 to 0.38,0.075 weight %
same,"Cb, end-point (MBC) of second component perillyl alcohol in the mixture",[1]; thymol to perillyl alcohol ratio 1 to 0.5,0.1 weight %
same,"Cb, end-point (MBC) of second component perillyl alcohol in the mixture",[1]; thymol to perillyl alcohol ratio 1 to 2.5,0.2 weight %
same,MBC (minimum biocidal concentration),[2],0.1 % w/v
same,MBC (minimum biocidal concentration),[3],0.5 % w/v
same,bactericidal efficacy in combination with thymol (in words),[3],15 second bactericidal efficacy
"Cc1ccc(C(C)C)c(O)c1 [thymol, 2-isopropyl-5-methylphenol]",ΣFBC,[1],1.00
same,"Ca, end-point (MBC) of first component thymol in the mixture","[1]; mixture with carveol at Cb, thymol to carveol ratio 1 to 0.05",0.5 weight %
same,"Ca, end-point (MBC) of first component thymol in the mixture","[1]; mixture with carveol at Cb, thymol to carveol ratio 1 to 0.08",0.6 weight %
same,"Ca, end-point (MBC) of first component thymol in the mixture","[1]; mixture with carveol at Cb, thymol to carveol ratio 1 to 0.19",0.4 weight %
same,"Ca, end-point (MBC) of first component thymol in the mixture","[1]; mixture with carveol at Cb, thymol to carveol ratio 1 to 0.25",0.3 weight %
same,"Ca, end-point (MBC) of first component thymol in the mixture","[1]; mixture with carveol at Cb, thymol to carveol ratio 1 to 0.5",0.2 weight %
same,"Ca, end-point (MBC) of first component thymol in the mixture","[1]; mixture with carveol at Cb, thymol to carveol ratio 1 to 3.5",0.1 weight %
same,"Ca, end-point (MBC) of first component thymol in the mixture","[1]; mixture with carveol at Cb, thymol to carveol ratio 1 to 4.38",0.08 weight %
same,"Ca, end-point (MBC) of first component thymol in the mixture","[1]; mixture with perillyl alcohol at Cb, thymol to perillyl alcohol ratio 1 to 0.17",0.3 weight %
same,"Ca, end-point (MBC) of first component thymol in the mixture","[1]; mixture with perillyl alcohol at Cb, thymol to perillyl alcohol ratio 1 to 0.5",0.2 weight %
same,"Ca, end-point (MBC) of first component thymol in the mixture","[1]; mixture with perillyl alcohol at Cb, thymol to perillyl alcohol ratio 1 to 2.5",0.08 weight %
same,MBC (minimum biocidal concentration),[3],0.2 % w/v
